Experimental data from patent publication US8663646B2, “P53 peptide vaccine” (priority 2007, dated 2014).
Where no end group is shown, it is not given here.

How the values were obtained:
HLA-A*0301 [1] = target: T1, HLA-A*0301 (Homo sapiens, UniProt P04439); assay: Competition based cellular binding assay, HLA-A*0301 (B-cell line EKR); conditions: for HLA binding Affinity (Table 5): HLA type A3; for IC50: read-out: Peptide Binding Affinity
T1 construct: B-cell lines used are: CAA (A*0101), EKR (A*0301), BVR (A*1101), VIJF (A*2401); endogenous in cells; host or cells: B-cell line EKR

HLA-A*0301 [2] = target: T1, HLA-A*0301; assay: Stability of peptide-HLA complex, binding at 4° C. and 20° C., HLA-A*0301; conditions: for HLA binding Stability (Table 5): HLA type A3; for Peptide Binding Stability: HLA-A*0301, IC50 at 20° C. vs 4° C.
Method: (§1) Stability of other peptide-HLA complexes was preferably determined as follows. […] Peptides of >50% of the initial complexes was lost within 2 hours were considered unstable. […] The rest was designated as unstable peptide binding.
(§2) Peptides 8-11 residues in length were selected based on typical anchor residues for HLA-A*0101, A*0301, A*1101 and HLA-A*2401 (Rammensee H G et al). The capacity of peptides to bind was tested in a competition based cellular binding assay as previously described (van der Burg S H et al 1995). FL-labeled reference peptides were synthesized as Cys-derivative (van der Burg S H et al 1995). Fluorescence labeled reference peptides used were: YLEPAC(FL)AK (SEQ ID NO: 87) (HLA-A*0101) and KVFPC(FL)ALINK (SEQ ID NO: 88) (HLA-A*1101) (Sette A et al), KVFPC(FL)ALINK (SEQ ID NO: 89) (HLAA*0301) (van der Burg S H et al 1995) and RYLKC(FL)QQLL (SEQ ID NO: 90) (A*2401) (Dai L C et al). B-cell lines used are: CAA (A*0101), EKR (A*0301), BVR (A*1101), VIJF (A*2401). The relative binding capacity of the peptides is expressed as the peptide concentration to inhibit 50% (1050) of the binding of the reference peptide. […] Peptide stabilization for HLA-A*0201 was performed as previously described (van der Burg S H et al, 1996). Peptides of >50% of the initial complexes was lost within 2 hours were considered unstable. Stability of other peptide-HLA complexes was determined as follows. Peptide binding was performed at 4° C. and 20° C. and 1050 were determined. […] The rest was designated as unstable peptide binding.

HLA-A*1101 = target: T2, HLA-A*1101 (Homo sapiens, UniProt P04439, A114D/D185E/E176A/F33Y/L180Q/S129P/T187R); assay: Stability of peptide-HLA complex, binding at 4° C. and 20° C., HLA-A*1101; conditions: for HLA binding Stability (Table 5): HLA type A11; for Peptide Binding Stability: HLA-A*1101, IC50 at 20° C. vs 4° C.
T2 construct: B-cell lines used are: CAA (A*0101), EKR (A*0301), BVR (A*1101), VIJF (A*2401); endogenous in cells; host or cells: B-cell line BVR
Method: as §1, §2

Compound | HLA binding Affinity (Table 5) (HLA-A*0301 [1]) | Peptide Binding Affinity (HLA-A*0301 [1]; HLA-A*0301, IC50 category) | HLA binding Stability (Table 5) (HLA-A*0301 [2]) | Peptide Binding Stability (HLA-A*0301 [2]) | IC50 (HLA-A*0301 [1]; HLA-A*0301, IC50 category) [µM] | HLA binding Stability (Table 5) (HLA-A*1101) | Peptide Binding Stability (HLA-A*1101)
GSRAHSSHLK [p53 361-370] | high | high | + (Stable peptides displayed IC50 at 20 °C that deviated <2 times of the IC50 at 4° C.) | + (Stable peptides displayed IC50 at 20 °C that deviated <2 times of the IC50 at 4° C.) |  |  | 
RVRAMAIY [p53 156-163] | int |  | − (The rest was designated as unstable peptide binding.) | − (The rest was designated as unstable peptide binding.) | 5 to 15 |  | 
RAHSSHLKSK [p53 363-372] | int |  | − (The rest was designated as unstable peptide binding.) | +/− (Peptides that displayed IC50 at 20 °C of more than twice the IC50 at 4 °C but IC50 < 15 μM were considered to bind with intermediate stability.) | 5 to 15 |  | 
CC[C@H](C)[C@H](NC(=O)[C@H](C)NC(=O)[C@H](CCSC)NC(=O)[C@H](C)NC(=O)[C@H](CCCNC(=N)N)NC(=O)[C@@H](NC(=O)[C@H](CCCNC(=N)N)NC(=O)[C@@H](NC(=O)CN)[C@@H](C)O)C(C)C)C(=O)N[C@@H](Cc1ccc(O)cc1)C(=O)O [p53 154-163] |  |  | − (The rest was designated as unstable peptide binding.) | − (The rest was designated as unstable peptide binding.) |  |  | 
C[C@@H](O)[C@H](NC(=O)[C@@H](N)CCCCN)C(=O)N[C@@H](Cc1ccc(O)cc1)C(=O)N[C@@H](CCC(N)=O)C(=O)NCC(=O)N[C@@H](CO)C(=O)N[C@@H](Cc1ccc(O)cc1)C(=O)NCC(=O)N[C@@H](Cc1ccccc1)C(=O)N[C@@H](CCCNC(=N)N)C(=O)O [p53 101-110] |  |  | +/− (Peptides that displayed IC50 at 20 °C of more than twice the IC50 at 4 °C but IC50 < 15 μM were considered to bind with intermediate stability.) | +/− (Peptides that displayed IC50 at 20 °C of more than twice the IC50 at 4 °C but IC50 < 15 μM were considered to bind with intermediate stability.) |  | +/− (Peptides that displayed IC50 at 20 °C of more than twice the IC50 at 4 °C but IC50 < 15 μM were considered to bind with intermediate stability.) | +/− (Peptides that displayed IC50 at 20 °C of more than twice the IC50 at 4 °C but IC50 < 15 μM were considered to bind with intermediate stability.)
CC(C)C[C@H](NC(=O)[C@H](Cc1c[nH]cn1)NC(=O)[C@H](CO)NC(=O)[C@H](CO)NC(=O)[C@H](Cc1c[nH]cn1)NC(=O)[C@H](C)NC(=O)[C@@H](N)CCCNC(=N)N)C(=O)N[C@@H](CCCCN)C(=O)N[C@@H](CO)C(=O)N[C@@H](CCCCN)C(=O)N[C@@H](CCCCN)C(=O)O [p53 363-373] |  |  | + (Stable peptides displayed IC50 at 20 °C that deviated <2 times of the IC50 at 4° C.) | + (Stable peptides displayed IC50 at 20 °C that deviated <2 times of the IC50 at 4° C.) |  |  | 
GGSRAHSSHLK [p53 360-370] | int |  | − (The rest was designated as unstable peptide binding.) | − (The rest was designated as unstable peptide binding.) | 5 to 15 |  | 
CC[C@H](C)[C@H](NC(=O)[C@H](C)NC(=O)[C@H](CCSC)NC(=O)[C@H](C)NC(=O)[C@H](CCCNC(=N)N)NC(=O)[C@@H](NC(=O)[C@H](CCCNC(=N)N)NC(=O)[C@@H](NC(=O)CN)[C@@H](C)O)C(C)C)C(=O)N[C@@H](Cc1ccc(O)cc1)C(=O)N[C@@H](CCCCN)C(=O)O [p53 154-164] |  |  | + (Stable peptides displayed IC50 at 20 °C that deviated <2 times of the IC50 at 4° C.) | + (Stable peptides displayed IC50 at 20 °C that deviated <2 times of the IC50 at 4° C.) |  |  | 
CC(C)C[C@H](NC(=O)[C@H](C)NC(=O)[C@@H]1CCCN1C(=O)[C@H](CO)NC(=O)[C@H](Cc1ccc(O)cc1)NC(=O)[C@@H](NC(=O)[C@@H](N)CS)[C@@H](C)O)C(=O)N[C@@H](CC(N)=O)C(=O)N[C@@H](CCCCN)C(=O)O [p53 124-132] |  |  |  | + (Stable peptides displayed IC50 at 20 °C that deviated <2 times of the IC50 at 4° C.) |  |  | + (Stable peptides displayed IC50 at 20 °C that deviated <2 times of the IC50 at 4° C.)
CSCC[C@H](NC(=O)[C@H](CC(C)C)NC(=O)[C@H](CCCCN)NC(=O)[C@H](CCCCN)NC(=O)[C@H](Cc1c[nH]cn1)NC(=O)[C@H](CCCNC(=N)N)NC(=O)[C@H](CO)NC(=O)[C@@H](NC(=O)[C@@H](N)CO)[C@@H](C)O)C(=O)N[C@@H](Cc1ccccc1)C(=O)N[C@@H](CCCCN)C(=O)O [p53 376-386] |  |  | − (The rest was designated as unstable peptide binding.) | +/− (Peptides that displayed IC50 at 20 °C of more than twice the IC50 at 4 °C but IC50 < 15 μM were considered to bind with intermediate stability.) |  |  | 
CC[C@H](C)[C@H](NC(=O)[C@H](C)NC(=O)[C@H](CCSC)NC(=O)[C@H](C)NC(=O)[C@H](CCCNC(=N)N)NC(=O)[C@@H](NC(=O)[C@@H](N)CCCNC(=N)N)C(C)C)C(=O)N[C@@H](Cc1ccc(O)cc1)C(=O)N[C@@H](CCCCN)C(=O)O [p53 156-164] |  |  | + (Stable peptides displayed IC50 at 20 °C that deviated <2 times of the IC50 at 4° C.) | + (Stable peptides displayed IC50 at 20 °C that deviated <2 times of the IC50 at 4° C.) |  | + (Stable peptides displayed IC50 at 20 °C that deviated <2 times of the IC50 at 4° C.) | + (Stable peptides displayed IC50 at 20 °C that deviated <2 times of the IC50 at 4° C.)
CC(C)[C@H](N)C(=O)N[C@H](C(=O)N[C@@H](CCCNC(=N)N)C(=O)N[C@@H](CCCNC(=N)N)C(=O)N[C@@H](CS)C(=O)N1CCC[C@H]1C(=O)N[C@@H](Cc1c[nH]cn1)C(=O)N[C@@H](Cc1c[nH]cn1)C(=O)N[C@@H](CCC(=O)O)C(=O)N[C@@H](CCCNC(=N)N)C(=O)O)C(C)C [p53 172-181] |  |  | + (Stable peptides displayed IC50 at 20 °C that deviated <2 times of the IC50 at 4° C.) | + (Stable peptides displayed IC50 at 20 °C that deviated <2 times of the IC50 at 4° C.) |  |  | 
CC(C)C[C@H](NC(=O)[C@H](C)NC(=O)[C@@H]1CCCN1C(=O)[C@H](CO)NC(=O)[C@H](Cc1ccc(O)cc1)NC(=O)[C@@H](NC(=O)[C@H](CS)NC(=O)[C@@H](NC(=O)[C@@H](N)C(C)C)[C@@H](C)O)[C@@H](C)O)C(=O)N[C@@H](CC(N)=O)C(=O)N[C@@H](CCCCN)C(=O)O [p53 122-132] |  |  |  | + (Stable peptides displayed IC50 at 20 °C that deviated <2 times of the IC50 at 4° C.) | 5 to 15 |  | 
